Assay results from patent US5559152A, “Pharmaceutical composition having antiacoholic activity” (priority 1994, dated 1996).
Read-outs that look alike come from different tables or passages of the source.

Assays:
[1] = system: rats subjected to gamma-irradiation; settings: 16 Gy, 100 mg/kg i.p. 30 min before irradiation
Procedure: This preparation was given i.p. to a group of 10 animals 30 min. before the irradiation in the dosage of 100 mg/kg of animal weight.

patients = settings: background; cited from earlier work
stomach mucosa [2] = system: stomach mucosa
Procedure: The diagnoses were verified on the basis of all presently used methods for diagnosing gastroenterological diseases. […] Pentagastrin in the dosage of 6 μg/kg of body weight and histamine in the dosage of 0.1 ml of 0.1% solution were used as comparative preparations. […] Having deciphered pH-gramms, pH levels, "alkaline time" (AT), hydrogen ions secretion rate (HISR), kinetic function of acid formation (KFA) were determined.
For this purpose the characteristics of stomach acid-forming function were studied in these volunteers after administering said preparations in different sequences.

[3] = system: stomach secretion in patients suffering chronic gastritis with pentagastrinrefractive achlorhydria; experiment: stomach secretion in patients with pentagastrinrefractive achlorhydria; type: in vivo, human; settings: stimulated secretion; M ± m
Procedure: Additionally intrastomach pH-metry was carried out (on an empty stomach and after taking the present composition or comparative preparations) using acidograph with aspiratory pH probe. Before introducing the present composition and comparative preparations and after that pH levels were registered and "alkaline time" was determined using Noller test. Having deciphered pH-gramms, pH levels, "alkaline time" (AT), hydrogen ions secretion rate (HISR), kinetic function of acid formation (KFA) were determined.
The effect of the present composition on stomach secretion in patients of this group has been studied.

[4] = system: stomach secretion in patients suffering chronic gastritis accompanied by stomach and duodenum ulcers; experiment: stomach secretion in patients with chronic gastritis accompanied by stomach and duodenum ulcers, pentagastrin after present composition; type: in vivo, human
Procedure: The diagnoses were verified on the basis of all presently used methods for diagnosing gastroenterological diseases. […] Additionally intrastomach pH-metry was carried out (on an empty stomach and after taking the present composition or comparative preparations) using acidograph with aspiratory pH probe. Before introducing the present composition and comparative preparations and after that pH levels were registered and "alkaline time" was determined using Noller test. Having deciphered pH-gramms, pH levels, "alkaline time" (AT), hydrogen ions secretion rate (HISR), kinetic function of acid formation (KFA) were determined.

[5] = system: stomach secretion in patients suffering chronic gastritis; experiment: comparative study of pentagastrin and present composition in patients suffering chronic gastritis; type: in vivo, human
Procedure: With intragastric pH-metry initial levels of pH in these patients varied from 3.5 to 6.8, and after Noller test these levels increased to alkaline values (8-9) which levels remained the same during the test period (1-1.5 hours).

succinate dehydrogenase = settings: mice; 4 mg/kg intrastomach, 40 min; M ± m
stomach mucosa [6] = settings: mice, 3.5 mg/kg intrastomach, 35-45 min; M ± m
Procedure: (§1) Stomachs were washed with water through cardiac opening and the washing from the antral opening were collected. Stomach contents (5 ml of washings) were used to determine pH, pepsin and total protein content. Stomach was refilled with water, frozen in cryostate and serial section having the thickness of 6-8 microns were made beginning from low curvature and parallel to stomach longer axis. In the sections of stomach bottom and body having a total weight of 50-90 mg, protein and nucleic acids content was determined.

[7] = system: stomach and liver tissues; settings: in 100 mg of tissue; 3.5 mg/kg; M ± m
Procedure: as §1

stomach mucosa [8] = settings: 3.6 mg/kg, dogs
[9] = system: rats subjected to gamma-irradiation; settings: rodents; cited from earlier work
[10] = system: rats (acute alcohol intoxication)
[11] = histamine stimulated secretion, an hour after present composition
[12] = secretion in 1 h after histamine injection
[13] = secretion in interval between stimulators (after histamine)
[14] = stimulated secretion, pentagastrin a day after present composition, M ± m

Compound: N[C@@H](CCC(=O)N[C@@H](CS)C(=O)NCC(=O)O)C(=O)O [glutathione]
- mortality [1]: 100%
- life-time of rats ([1]; control 6.9 days): 10.2 days

Compound: NCCc1c[nH]cn1 [histamine]
- complications / side effects (patients): nettle-rash,larynx edema, anaphylactic shock
- effects on stomach acid-forming function (duration and intensity), present composition versus histamine (stomach mucosa [2]; Tables 23 and 24): identical effects on stomach acid-forming function
- Free hydrochloric acid (stomach mucosa [2]; histamine secretion, M ± m): 6.5 ± 0.27 meq./liter
- Total hydrochloric acid (stomach mucosa [2]; histamine secretion, M ± m): 8.00 ± 0.29 meq./liter
- Free hydrochloric acid (stomach mucosa [2]; [11]): 3.90 ± 0.11 meq/liter
- Total hydrochloric acid (stomach mucosa [2]; [11]): 4.70 ± 0.12 meq/liter
- Free hydrochloric acid (stomach mucosa [2]; [12]): 6.92 ± 0.73 meq/liter
- Total hydrochloric acid (stomach mucosa [2]; [12]): 4.6 ± 0.5 meq/liter
- Free hydrochloric acid (stomach mucosa [2]; [13]): 15.3 ± 1.4 meq./liter
- Total hydrochloric acid (stomach mucosa [2]; [13]): 15.8 ± 1.6 meq./liter

Compound: CSCC[C@H](NC(=O)[C@H](Cc1c[nH]c2ccccc12)NC(=O)CCNC(=O)OC(C)(C)C)C(=O)N[C@@H](CC(=O)O)C(=O)N[C@@H](Cc1ccccc1)C(N)=O [pentagastrin]
- Acid secretion [3]: 15.25 ± 0.86%
- Acidity [3]: 0 ± 0 mmol per liter
- Hydrochloric acid debit [3]: 0 ± 0 mmol per hour
- Pepsin content [3]: 0 ± 0 mg per ml
- Pepsin debit [3]: 0 ± 0 mg per hour
- Stomach contents volume [3]: 0.067 ± 0.15 liter per hour
- effect on stomach secretion, comparison of the both preparations ([4]; chronic gastritis accompanying stomach and duodenum ulcers, p<0.5): nearly the same effect on stomach secretion
- effects when present composition administered in a week after pentagastrin ([4]; p<0.5): nearly identical
- Pepsin debit ([4]; stimulated secretion, pentagastrin a day after present composition, M ±): 5.0 ± 1.05 mg/h
- Hydrochloric acid debit [4, 14]: 17 ± 1.44 mmol/h
- Secretion volume [4, 14]: 178 ± 12.7 mL
- pH [4, 14]: 1.4 ± 0.14
- acidity, pepsin content, hydrochloric acid debit and pepsin debit ([5]; 12 refractory patients): remained at zero levels
- intragastric pH after stimulation ([5]; 12 refractory patients, from 6.51±1.06, p<0.25): 4.69±0.92
- AT reduction in Noller test ([5]; 12 refractory patients, p<0.5): did not cause AT reduction
- patients refractory ([5]; chronic gastritis, pentagastrin 6 μg/kg): 12 of 50
- effect on stomach secretion, comparison of the both preparations ([5]; patients suffering chronic gastritis, p<0.5): nearly the same effect on stomach secretion

Compound: O=C(O)CCC(=O)O [succinic acid]
- succinate dehydrogenase activity in liver (succinate dehydrogenase): 21.8 ± 0.6 nanomoles of formazan of p-nit
- succinate dehydrogenase activity in stomach (succinate dehydrogenase): 26.3 ± 3.0 nanomoles of formazan of p-nit
- succinate dehydrogenase activity of lymphocytes (succinate dehydrogenase): 643. ± 5.1 granules of formazan of p-nitr
- Pepsin amount in stomach contents (stomach mucosa [6]): 18.7 ± 2.1 µg
- Total protein amount in stomach contents (stomach mucosa [6]): 3.9 ± 0.9 mg
- pH of stomach contents (stomach mucosa [6]): 5.7 ± 0.2
- Liver DNA content [7]: 15.6 ± 2.7 µg
- Liver RNA content [7]: 74.5 ± 4.4 µg
- Liver protein content [7]: 14.4 ± 1.2 mg
- Stomach DNA content [7]: 13.1 ± 1.1 µg
- Stomach RNA content [7]: 70.0 ± 4.7 µg
- Stomach protein content [7]: 12.1 ± 0.9 mg
- time after introduction at which effect on stomach secretion abated (stomach mucosa [8]): 20 min
- stimulation of stomach glands and fermentative activity (stomach mucosa [8]; versus present composition): less expressed results
- effective dosage (radioprotective) [9]: 2.7 g/kg of animal weight
- Duration of on-side position, single ethanol injection ([10]; 1.85 mg/kg intrastomach 40 min before 25% ethanol 3.5 g/kg i.p., M ± m): 1.6 ± 1.1 min
- Duration of on-side position, repeated ethanol injection ([10]; 1.85 mg/kg intrastomach, second 25% ethanol 3 g/kg, 60 min after leaving on-side position, M ± m): 24.9 ± 3.8 min
- alcoprotective detoxifying activity compared ([10]; after a single ethanol injection, versus claimed composition): higher alcoprotective detoxifying activity than the claimed composition
